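How tested: cells in 96-well plates exposed to compound for 48 hours at five concentrations. TGI: concentration producing complete growth inhibition.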
Columns and labels:
Assay in all cases: NCI-60 cell line screen, 48 h
IGROV1 ovarian = test system: IGROV1 ovarian
SK-MEL-5 melanoma = test system: SK-MEL-5 melanoma
U251 CNS = test system: U251 CNS
NCI-H460 lung = test system: NCI-H460 lung
RPMI-8226 leukemia = test system: RPMI-8226 leukemia
SK-MEL-2 melanoma = test system: SK-MEL-2 melanoma
NCI-H226 lung = test system: NCI-H226 lung
SF-268 CNS = test system: SF-268 CNS
NCI-H522 lung = test system: NCI-H522 lung
BT-549 breast = test system: BT-549 breast
HS 578T breast = test system: HS 578T breast

| Structure (SMILES) | TGI (IGROV1 ovarian) [µM] | TGI (SK-MEL-5 melanoma) [µM] | TGI (U251 CNS) [µM] | TGI (NCI-H460 lung) [µM] | TGI (RPMI-8226 leukemia) [µM] | TGI (SK-MEL-2 melanoma) [µM] | TGI (NCI-H226 lung) [µM] | TGI (SF-268 CNS) [µM] | TGI (NCI-H522 lung) [µM] | TGI (BT-549 breast) [µM] | TGI (HS 578T breast) [µM] |
| --- | --- | --- | --- | --- | --- | --- | --- | --- | --- | --- | --- |
| CC(=O)Nc1ccc(C(=O)NN2C(=O)C(Cl)C2/C=C/c2ccccc2)cc1 (stereo not drawn) | > 100 | > 100 | > 100 | > 100 | > 100 | > 100 | > 100 | > 100 | > 100 | – | – |
| CCOC(=O)CCNC(=O)c1cc(C)cc2c1Oc1c(cc(C)cc1C(=O)NCCC(=O)OCC)S2 | > 100 | > 100 | > 100 | – | > 100 | > 100 | > 100 | > 100 | > 100 | > 100 | > 100 |
| ClC1(Cl)C2CCOC21n1cnc2ccccc21 (stereo not drawn) | > 100 | > 100 | > 100 | – | > 100 | > 100 | > 100 | > 100 | > 100 | > 100 | > 100 |
| COC(=O)CC(c1ccccc1)C(C#N)(OP1(=O)OC(c2ccccc2)C(C)N1C)c1ccccc1 (stereo not drawn) | > 100 | 39.8 | > 100 | > 100 | > 100 | 92.6 | – | > 100 | > 100 | > 100 | > 100 |
| CC(C)[Si](CC1=CCCCC12C(=O)N(COCC[Si](C)(C)C)c1ccccc12)(C(C)C)C(C)C (stereo not drawn) | > 100 | > 100 | > 100 | > 100 | > 100 | > 100 | > 100 | > 100 | > 100 | – | > 100 |
| COc1ccc(/C=C2\NC(=S)N(CN3CCOCC3)C2=O)cc1 | > 100 | > 100 | > 100 | – | > 100 | > 100 | > 100 | > 100 | – | – | > 100 |
| O=C(O)c1cc2sc(C(=O)O)cc2s1 | > 100 | > 100 | > 100 | > 100 | > 100 | – | > 100 | > 100 | > 100 | – | – |
| C[C@H](OC(=O)/C=C/c1ccc(O)c(O)c1)[C@H](C)OC(=O)/C=C/c1ccc(O)c(O)c1 | 31.5 | 21.5 | > 100 | > 100 | > 100 | 50.3 | – | 34.5 | 35.1 | 24.1 | > 100 |
| CC(=O)Oc1ccc(C2SCc3nc4ccccc4n32)cc1 (stereo not drawn) | > 100 | > 100 | > 100 | > 100 | > 100 | 80.2 | – | 70.8 | 69.2 | > 53.3 | > 100 |
| Cc1nc2c(ccc3[nH]c4ccccc4c32)s1 | > 100 | 29.6 | 54.3 | 79.4 | – | 54.7 | 98.7 | > 100 | 35 | 57.3 | 46.5 |
| COc1cc2oc(=O)cc(C)c2c(OC)c1OC | > 100 | > 100 | > 100 | – | > 100 | > 100 | > 100 | > 100 | – | – | > 100 |

Reference: PubChem BioAssay (NCI)
